{"source": "patent US8686224B2", "about": "“Plant defense signal peptides” (priority 2005, dated 2014)", "key": {"[1]": {"tested_on": "AtproPep1 gene expression", "assay": "Hormone treatments of intact plants, RT-PCR of AtproPep1 and paralogs", "assay_type": "in vivo, Arabidopsis thaliana", "settings": "for expression of AtproPep1 paralogs after spraying: At5g64905, At5g64900, At5g64890, At5g09980; for expression of the AtproPep1 gene in intact plants: sprayed: MeJA 250 μM, ethephon 7 mM, within an hour", "experimental": "Plant stress and hormone treatments. To examine effects of cold stress, plants were placed in a refrigerated growth chamber set to 2° C. To simulate drought stress conditions, plants grown under standard growth chamber conditions were grown without watering. Methyl jasmonate (Bedoukian Research Inc., Danbury Conn.) was applied as a 625 μM solution in 0.1% Triton X-100 to the upper surface of leaves and the plants were incubated in plexiglass boxes. Methyl salicylate (Sigma-Aldrich, St. Louis Mo.), was applied to leaf surfaces at 2 mM in a 0.1% Triton X-100 solution. Ethephon (Phytotechnology Laboratories, Shawnee Mission Kans.) was sprayed on plants as a 7 mM solution in 0.1% Triton X-100 (Sigma-Aldrich, St. Louis Mo.). ABA effects were analyzed by spraying plants with a 100 μM solution (mixed isomer, Sigma-Aldrich, St. Louis Mo.) in 0.1% Triton X-100 (Denekamp and Smeekens, Plant Physiol. 132, 1415-1423, 2003).\nSemi-quantitative RT-PCR analysis of relative gene expression levels. RNA was isolated using Trizol reagent and manufacturer's instructions (Invitrogen. Carlsbad Calif.), and 2 μg of RNA template was reverse transcribed with a RETROscript kit (Ambion, Austin Tex.). PCR reactions were carried out with ExTaq Hot Start polymerase and reagents (Fisher Scientific, Pittsburgh Pa.). The AtproPep1 forward and reverse primers with the respective sequences of 5′ […] 3′ (SEQ ID NO: 59) and 5′ […] 3′ (SEQ ID NO: 60) generated a 310 bp intron-spanning product. Primers to β-tubulin (At5g62690) of 5′ […] 3′ (SEQ ID NO: 73) and 5′ […] 3′ (SEQ ID NO: 74) generated a 681 base pair intron-spanning product. An initial denaturing/polymerase activating step of 5 minutes at 94° C. was followed by 31 repetitions of the following three steps: a thirty second denaturation phase at 94° C., a thirty second annealing period at 55.5° C., and a one minute elongation step at 72° C. The amplification program was terminated with a 10 minute final 72° C. elongation phase.\nExpression analysis of AtproPep1 in response to abiotic and biotic cues. As a first step in seeking a possible function for AtproPep1 and its encoded peptide, the basal expression level of the gene was assessed in leaves, stems, roots and flowers of Arabidopsis plants was studied using semi-quantitative RT-PCR analysis of AtproPep1 gene expression in response to treatment of leaves with MeJA, ethephon, MeSA, and AtPep1. The relative abundance of the proAtPep1 transcript was estimated from the expression of the β-tubulin gene as a control. Leaves were wounded by crushing once across the mid-vein with a hemostat. Plants were sprayed with a 250 μM solution of MeJA in 0.1% Triton X-100; with a […] solution of MeSA in 0.1% Triton X-100 or with a 7 mM solution of ethephon in 0.1% Triton X-100. […] Total RNA was extracted and analyzed."}, "[2]": {"tested_on": "AtPEPR1 and AtPEPR2 transcripts", "assay": "Expression analysis of AtPEPR1 and AtPEPR2 (Northern hybridization, quantitative RT-PCR)", "assay_type": "in vivo, Arabidopsis thaliana", "settings": "within 30 min", "experimental": "Expression analysis of AtPEPR1 and AtPEPR2. […] In order to elucidate the role of AtPEPR2 in AtPeps signal transduction, the gene expression patterns were analyzed in comparison with AtPEPR1."}, "[3]": {"tested_on": "GmPROPEP and soybean defense-related gene expression", "assay": "Soybean gene expression by semi-quantitative RT-PCR", "assay_type": "in vivo", "experimental": "Precursor gene expression of soybean homologues of the AtPep peptide, GmPROPEP1, GmPROPEP2 and GmPROPEP3, were analyzed by semi-quantitative RT-PCR. GmPROPEP2 and GmPROPEP3 were expressed in leaves, stems and roots. GmPROPEP1 was expressed mainly in roots, and very weakly in leaves and stems. The transcripts of GmPROPEP1 increased 4-fold 1 hour after supplying MeJA and 3-fold 8 hours after wounding. The transcripts of GmPROPEP2 increased 5-fold 2 hours after supplying MeJA. GmPep1-3 also affected the precursor gene expression. The GmPROPEP1 was induced by infiltration of GmPep1-3 (50 nM), and GmPROPEP2 was induced by GmPep2 (50 nM) and GmPep3 (50 nM) infiltration.\nTo examine whether GmPep1-3 are involved in defense responses, expression of soybean defense-related genes were analyzed by semi-quantitative RT-PCR after GmPep1-3 infiltration. The transcripts of D6aH/CYP93a1, a biosynthetic enzyme of the soybean phytoalexin glyceollin (Schopfer et al., FEBS Lett. 432: […], 1998), were induced 2 to 3-fold by GmPep1-3 infiltration."}, "[4]": {"molecular_target": "T1, AtPEPR1 (Arabidopsis thaliana, UniProt Q9SSL9)", "T1 construct": "Tobacco cells were transformed with a CaMV-35S-AtPEPR1 gene; expressed in transfected cells; host or cells: tobacco suspension-cultured cells (Agrobacterium-mediated, CaMV 35S promoter)", "T1 sequence (Q9SSL9 29-1123)": "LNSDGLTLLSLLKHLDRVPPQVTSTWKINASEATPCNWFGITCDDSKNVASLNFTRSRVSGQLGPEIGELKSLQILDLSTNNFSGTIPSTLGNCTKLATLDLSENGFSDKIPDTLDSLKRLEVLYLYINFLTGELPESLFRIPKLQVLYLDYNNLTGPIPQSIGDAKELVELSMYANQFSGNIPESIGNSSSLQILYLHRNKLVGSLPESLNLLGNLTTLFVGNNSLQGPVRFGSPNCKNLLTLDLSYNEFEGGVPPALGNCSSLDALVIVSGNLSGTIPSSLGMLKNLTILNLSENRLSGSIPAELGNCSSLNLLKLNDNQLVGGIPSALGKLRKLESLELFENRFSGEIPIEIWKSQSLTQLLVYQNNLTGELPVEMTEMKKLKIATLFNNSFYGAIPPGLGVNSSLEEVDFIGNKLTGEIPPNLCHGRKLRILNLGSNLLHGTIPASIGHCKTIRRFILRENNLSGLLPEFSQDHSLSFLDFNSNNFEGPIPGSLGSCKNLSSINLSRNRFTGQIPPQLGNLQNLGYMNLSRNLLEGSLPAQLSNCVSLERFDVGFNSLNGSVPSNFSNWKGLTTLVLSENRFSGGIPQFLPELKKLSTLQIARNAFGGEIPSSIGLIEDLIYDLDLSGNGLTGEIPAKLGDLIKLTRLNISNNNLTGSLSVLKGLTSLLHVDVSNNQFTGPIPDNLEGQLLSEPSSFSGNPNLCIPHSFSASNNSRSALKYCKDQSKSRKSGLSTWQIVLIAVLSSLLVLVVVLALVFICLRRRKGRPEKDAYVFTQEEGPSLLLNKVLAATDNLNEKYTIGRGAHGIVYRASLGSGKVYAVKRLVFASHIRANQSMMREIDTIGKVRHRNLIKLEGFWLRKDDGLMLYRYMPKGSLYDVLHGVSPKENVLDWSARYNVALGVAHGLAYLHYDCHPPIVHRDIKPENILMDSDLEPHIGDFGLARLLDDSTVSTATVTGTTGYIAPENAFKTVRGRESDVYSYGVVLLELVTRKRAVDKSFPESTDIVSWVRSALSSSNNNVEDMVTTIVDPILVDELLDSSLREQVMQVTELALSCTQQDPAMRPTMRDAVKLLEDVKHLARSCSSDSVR", "assay": "Medium alkalinization of transgenic tobacco cells expressing AtPEPR1", "assay_type": "cell-based", "text": "Tobacco cells were transformed with a CaMV-35S-AtPEPR1 gene to determine whether the foreign receptor protein was targeted to the cell surface, where, in response to AtPep1, it would activate intracellular signaling to effect the alkalinization of the medium of the transgenic tobacco cells. Expression of the AtPEPR1 gene was confirmed by RT-PCR analysis of RNA from three independently transformed tobacco cell lines. […] AtPep2-7 was also supplied to the transgenic tobacco cells expressing AtPEPR1.\n(§1) To clarify whether AtPEPR2 binds to AtPep1, the AtPEPR2 coding region was fused to the CaMV 35S promoter and introduced into tobacco suspension-cultured cells by Agrobacterium. Tobacco cells expressing AtPEPR1 and GUS genes were also created as positive and negative controls, respectively. […] These transgenic lines were analyzed for alkalinizing activity as previously described (Pearce et al., Proc. Natl. Acad. Sci. USA 98, 12843-12847, 2001).\n(§2) The response to all AtPep peptides in transgenic tobacco cells expressing either AtPEPR1 or AtPEPR2 was analyzed by the medium alkalinization assay."}, "[5]": {"molecular_target": "T2, AtPEPR2 (Arabidopsis thaliana, UniProt Q9FZ59)", "T2 construct": "the AtPEPR2 coding region was fused to the CaMV 35S promoter and introduced into tobacco suspension-cultured cells; expressed in transfected cells; host or cells: tobacco suspension-cultured cells, transformed by Agrobacterium, kanamycin-selected", "T2 sequence (Q9FZ59 27-1088)": "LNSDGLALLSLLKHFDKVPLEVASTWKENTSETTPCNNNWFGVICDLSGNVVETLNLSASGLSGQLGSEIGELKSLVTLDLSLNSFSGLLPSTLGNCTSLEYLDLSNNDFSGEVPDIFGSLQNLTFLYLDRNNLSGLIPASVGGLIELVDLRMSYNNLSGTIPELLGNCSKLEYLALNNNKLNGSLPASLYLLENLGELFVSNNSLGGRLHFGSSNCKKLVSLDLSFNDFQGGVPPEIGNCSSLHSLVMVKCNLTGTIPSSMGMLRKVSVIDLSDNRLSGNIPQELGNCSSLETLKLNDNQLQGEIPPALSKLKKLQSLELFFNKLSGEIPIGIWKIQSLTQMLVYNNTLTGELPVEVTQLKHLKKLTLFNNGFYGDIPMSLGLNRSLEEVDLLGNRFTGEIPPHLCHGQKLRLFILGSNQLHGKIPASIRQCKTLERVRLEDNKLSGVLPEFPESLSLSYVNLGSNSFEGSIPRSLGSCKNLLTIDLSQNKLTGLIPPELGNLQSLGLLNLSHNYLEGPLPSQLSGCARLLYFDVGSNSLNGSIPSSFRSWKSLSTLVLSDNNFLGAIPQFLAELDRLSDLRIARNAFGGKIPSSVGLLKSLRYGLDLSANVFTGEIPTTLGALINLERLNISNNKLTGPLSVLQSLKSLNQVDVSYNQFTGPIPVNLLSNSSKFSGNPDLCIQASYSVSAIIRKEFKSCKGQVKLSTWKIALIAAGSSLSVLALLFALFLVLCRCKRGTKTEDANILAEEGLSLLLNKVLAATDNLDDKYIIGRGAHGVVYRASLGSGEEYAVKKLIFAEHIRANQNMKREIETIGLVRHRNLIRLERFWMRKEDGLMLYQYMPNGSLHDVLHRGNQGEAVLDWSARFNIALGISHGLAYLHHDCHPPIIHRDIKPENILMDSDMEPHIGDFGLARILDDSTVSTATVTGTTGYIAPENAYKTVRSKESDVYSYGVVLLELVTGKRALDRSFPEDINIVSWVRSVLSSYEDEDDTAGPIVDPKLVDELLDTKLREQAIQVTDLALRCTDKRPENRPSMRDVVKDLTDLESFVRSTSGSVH", "assay": "Medium alkalinization of transgenic tobacco cells expressing AtPEPR2", "assay_type": "cell-based", "experimental": "as §1, §2"}, "[6]": {"tested_on": "OsPEPR2", "sequence (as listed by the source)": "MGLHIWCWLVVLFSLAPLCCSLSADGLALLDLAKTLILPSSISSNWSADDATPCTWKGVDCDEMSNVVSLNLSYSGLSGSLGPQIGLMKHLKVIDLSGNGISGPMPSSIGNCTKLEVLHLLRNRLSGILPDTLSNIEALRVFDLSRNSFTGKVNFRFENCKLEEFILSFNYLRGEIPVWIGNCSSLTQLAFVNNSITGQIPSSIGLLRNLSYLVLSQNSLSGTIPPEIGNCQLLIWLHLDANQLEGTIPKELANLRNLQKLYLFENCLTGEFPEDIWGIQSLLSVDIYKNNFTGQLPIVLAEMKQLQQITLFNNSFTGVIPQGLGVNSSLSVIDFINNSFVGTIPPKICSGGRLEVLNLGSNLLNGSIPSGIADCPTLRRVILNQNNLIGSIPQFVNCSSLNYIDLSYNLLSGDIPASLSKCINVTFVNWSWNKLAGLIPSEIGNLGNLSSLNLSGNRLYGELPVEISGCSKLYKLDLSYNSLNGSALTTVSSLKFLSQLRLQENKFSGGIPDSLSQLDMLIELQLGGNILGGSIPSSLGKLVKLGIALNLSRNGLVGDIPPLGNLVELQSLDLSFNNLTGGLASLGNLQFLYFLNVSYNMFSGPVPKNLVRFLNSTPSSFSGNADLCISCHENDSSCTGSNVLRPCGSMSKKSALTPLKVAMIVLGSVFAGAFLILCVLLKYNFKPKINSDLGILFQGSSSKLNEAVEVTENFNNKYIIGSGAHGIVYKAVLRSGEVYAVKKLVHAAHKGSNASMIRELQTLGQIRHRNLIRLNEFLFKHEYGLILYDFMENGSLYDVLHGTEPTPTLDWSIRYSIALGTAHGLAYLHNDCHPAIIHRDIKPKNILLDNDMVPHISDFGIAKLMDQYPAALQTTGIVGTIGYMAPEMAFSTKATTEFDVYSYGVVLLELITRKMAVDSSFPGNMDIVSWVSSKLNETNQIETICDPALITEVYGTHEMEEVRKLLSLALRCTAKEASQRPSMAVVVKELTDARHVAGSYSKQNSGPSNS", "assay": "Medium alkalinization of transgenic tobacco cells expressing OsPEPR2", "assay_type": "cell-based, rice", "text": "(§3) We identified rice homologues of AtPEPR1 in the Rice Annotation Project database (see the website located at www.rapdb.dna.affrc.go.jp). The rice homologues, OsPEPR1 (Os08g0446200) and OsPEPR2 (Os08g0446400), have 60% and 62% amino acid similarities, respectively. The OsPEPR1 has 26 LRRs in the extracellular region, which is the same as AtPEPR1. The OsPEPR2 has a shorter extracellular region with 22 LRRs. Transgenic tobacco cells expressing either OsPEPR1 or OsPEPR2 were created to examine the possibility of receptor binding to monocot peptides. OsPep3a, OsPep3b, OsPep3c, ZmPep1 and ZmPep4a were supplied to suspension cultured transgenic tobacco cells, and medium pH was measured. OsPep3a, OsPep3b, ZmPep1 and ZmPep4a caused medium alkalinization in OsPEPR1 expressing cells with a 1.2 pH unit increase and a half-maximal activity of 0.25 nM."}, "[7]": {"tested_on": "OsPEPR1", "sequence (as listed by the source)": "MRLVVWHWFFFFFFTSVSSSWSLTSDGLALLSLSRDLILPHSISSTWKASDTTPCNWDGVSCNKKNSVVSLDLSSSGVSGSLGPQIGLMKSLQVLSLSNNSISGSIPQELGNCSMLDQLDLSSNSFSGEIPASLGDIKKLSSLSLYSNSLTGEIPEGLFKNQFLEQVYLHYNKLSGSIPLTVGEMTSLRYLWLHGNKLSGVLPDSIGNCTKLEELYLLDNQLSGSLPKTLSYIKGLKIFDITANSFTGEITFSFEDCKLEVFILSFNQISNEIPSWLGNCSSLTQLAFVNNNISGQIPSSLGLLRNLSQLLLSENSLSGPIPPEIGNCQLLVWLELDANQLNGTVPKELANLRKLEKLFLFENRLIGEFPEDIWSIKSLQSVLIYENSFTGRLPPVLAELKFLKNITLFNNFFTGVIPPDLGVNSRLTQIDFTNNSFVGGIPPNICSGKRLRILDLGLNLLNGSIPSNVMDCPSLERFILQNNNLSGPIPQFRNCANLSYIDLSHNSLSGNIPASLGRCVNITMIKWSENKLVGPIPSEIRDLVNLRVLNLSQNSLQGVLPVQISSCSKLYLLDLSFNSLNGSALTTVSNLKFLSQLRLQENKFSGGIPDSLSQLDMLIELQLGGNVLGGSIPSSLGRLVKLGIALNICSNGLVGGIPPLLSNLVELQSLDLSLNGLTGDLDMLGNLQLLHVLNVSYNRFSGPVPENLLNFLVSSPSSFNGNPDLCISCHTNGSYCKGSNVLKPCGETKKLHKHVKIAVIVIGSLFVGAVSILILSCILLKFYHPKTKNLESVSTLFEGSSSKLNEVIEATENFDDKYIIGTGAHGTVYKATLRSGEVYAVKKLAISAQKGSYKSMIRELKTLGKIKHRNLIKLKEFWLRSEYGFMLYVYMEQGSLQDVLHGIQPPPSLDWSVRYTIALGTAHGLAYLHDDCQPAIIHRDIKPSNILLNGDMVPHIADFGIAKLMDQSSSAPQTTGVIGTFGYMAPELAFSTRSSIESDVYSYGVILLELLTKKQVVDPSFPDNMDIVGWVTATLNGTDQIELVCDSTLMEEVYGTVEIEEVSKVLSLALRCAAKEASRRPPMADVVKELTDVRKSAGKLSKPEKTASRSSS", "assay": "Medium alkalinization of transgenic tobacco cells expressing OsPEPR1", "assay_type": "cell-based, rice", "text": "as §3"}}, "note": "No end group written: not given here."}
{"molecule": "COC(=O)c1ccccc1O", "note": "[MeSA, methyl salicylate, reference compound]", "values": [{"measurement": "expression of AtproPep1 paralogs after spraying", "setting": "[1]", "value": "strongly induced only two of the genes"}]}
{"molecule": "O=P(O)(O)CCCl", "note": "[ethephon]", "values": [{"measurement": "expression of the AtproPep1 gene in intact plants", "setting": "[1]", "value": "induced a strong expression"}]}
{"molecule": "CC/C=C\\CC1C(=O)CCC1CC(=O)OC", "note": "(centres unmarked) [MeJA, methyl jasmonate]", "values": [{"measurement": "induction of AtPEPR1 and AtPEPR2 transcripts", "setting": "[2]", "value": "induced"}, {"measurement": "expression of AtproPep1 paralogs after spraying", "setting": "[1]", "value": "expressed relatively strongly"}, {"measurement": "expression of the AtproPep1 gene in intact plants", "setting": "[1]", "value": "induced a strong expression"}, {"measurement": "increase of GmPROPEP1 transcripts", "setting": "[3]; 1 hour after supplying", "value": 4, "unit": "fold"}, {"measurement": "increase of GmPROPEP2 transcripts", "setting": "[3]; 2 hours after supplying", "value": 5, "unit": "fold"}]}
{"molecule": "EIKARGKNKTKPTPSSGKGGKHN [AtPep3, DNKAKSKKRDKEKPSSGRPGQTN]", "values": [{"measurement": "induction of AtPEPR1 and AtPEPR2 transcripts", "setting": "[2]", "value": "strong inducer"}, {"measurement": "maximal change", "setting": "[4]; AtPEPR1 expressing tobacco cells", "value": 1.2, "unit": "pH units"}]}
{"molecule": "SLNVMRKGIRKQPVSSGKRGGVN [AtPep2, SLNVMRKGIRKQPVSSGKRGGVN]", "values": [{"measurement": "EC50", "setting": "[5]", "value": "~0.25", "unit": "nM"}, {"measurement": "EC50", "setting": "[4]", "value": "~0.25", "unit": "nM"}]}
{"molecule": "SLAGANVLVRDAPPETGGGPHHN (SLAGANVLVRDAPPETGGGPHHN) [OsPep3c]", "values": [{"measurement": "medium alkalinization activity", "setting": "[6]", "value": "weak activity"}, {"measurement": "medium pH increase", "setting": "[6]; peptide at 250 nM", "value": 0.5, "unit": "pH unit"}, {"measurement": "medium alkalinization activity", "setting": "[7]", "value": "did not show any activity"}]}
